Assays:
Format in all cases: cell-based
[1] = test system: human aortic smooth muscle cells (AoSMC); experiment: Alkaline phosphatase activity assay in AoSMC; details: 300 mcM ascorbate, regular growth medium, FIG. 1
Method: AoSMC were plated in 96 well plates and grown to confluent layer. Cells were incubated with ascorbic acid in growth medium for three days. Cells were washed with phosphate buffered saline (PBS) and supplemented with 50 mcl/well 25 mcg/ml 4-MUP (fluorescent ALP substrate, Sigma) in alkaline buffer (Sigma)/1% Triton X100 for 1 h at room temperature. Fluorescence was measured at 360/450 nm.

[2] = test system: human dermal fibroblasts (DF); experiment: Expression of osteoblast markers in dermal fibroblasts (immunoassay); details: 100 mcM ascorbic acid, medium with 5 mM beta-glycerophosphate and 25 mcM forskolin, FIG. 3
Method: (§1) Cell viability was monitored with MTT assay.
(§2) For the experiments AoSMC, DF and hFOB cells were seeded in separate 96 well plastic plates at density 25,000 per square cm and grown to confluence for 5-7 days. Tested compounds were added to cells at indicated concentrations for 72 hours in DMEM supplemented with 2% FBS. Cell layers were washed three times with PBS and fixed with 3% formaldehyde in PBS at 4° C. for one hour. Fixed cell layers were washed four times with PBS and treated with 1% BSA/PBS for one hour at RT. Immunoassay for osteogenic markers was done by sequential incubation with primary monoclonal antibodies (R&D Systems) in 1% BSA/PBS for 2 hours followed by 1 hour incubation with secondary goat anti-mouse IgG antibodies labeled with horse radish peroxidase (HRP). Retained peroxidase activity was measured after the last washing cycle (three times with 0.1% BSA/PBS) using TMB peroxidase substrate reagent (Rockland). Optical density was read with plate reader (Molecular Devices) at 450 nm and expressed as percentage of control cell samples incubated in unsupplemented 2% FBS/DMEM. To ensure a direct comparison of osteogenic markers expression on different cell types all pcell covered plates were treated identical and simultaneously during immunoassay.

[3] = test system: human aortic smooth muscle cells (AoSMC); experiment: Calcium accumulation in extracellular matrix of cultured AoSMC
Method: as §1
AoSMC were seeded on fibronectin covered plastic plates at density 25,000 per square cm and grown to confluence for 5-7 days. […] J Cardiovasc Pharmacol 2008; 52:55-65. After four washes with PBS, ECM layers were solubilized by incubation in 0.6N HCl for 48 hours at 37° C. Calcium content in solubilized samples was measured with TECO Ca assay according to manufacturer's protocol.

[4] = test system: human aortic smooth muscle cells (AoSMC); experiment: Expression of osteoblast markers in AoSMC (immunoassay); details: 100 mcM ascorbic acid, medium with 5 mM beta-glycerophosphate and 25 mcM forskolin, FIG. 3
Method: as §1, §2

[5] = 100 mcM ascorbate concomitant with simvastatin, without forskolin, FIG. 2A

O=C1O[C@H]([C@@H](O)CO)C(O)=C1O [ascorbic acid, L-ascorbic acid]
decrease of cellular alkaline phosphatase activity [1]: 80%
expression of all tested osteogenic markers [2]: significantly reduced
decrease of calcium accumulation ([3]; 100 mcM ascorbate added to 1 mM mevastatin, with 25 mcM forskolin, FIG. 2B): 19%
accumulated calcium [3, 5]: 0.2 mcg/well
decrease of accumulated calcium [3, 5]: 54%
decrease of extracellular Ca accumulation by AoSMC ([3]; 300 mcM ascorbate, regular growth medium, FIG. 1): 20%
expression of all tested osteogenic markers [4]: significantly reduced

CC[C@H](C)C(=O)O[C@H]1CCC=C2C=C[C@H](C)[C@H](CC[C@@H]3C[C@@H](O)CC(=O)O3)[C@H]21 [mevastatin]
calcium accumulation ([3]; 1 mM mevastatin, with 25 mcM forskolin, FIG. 2B, control 1.35 mcg/well): 1.8 mcg/well

CCC(C)(C)C(=O)O[C@H]1C[C@@H](C)C=C2C=C[C@H](C)[C@H](CC[C@@H]3C[C@@H](O)CC(=O)O3)[C@H]21 [simvastatin]
increase of calcium accumulation in AoSMC layers ([3]; in the presence of simvastatin, without forskolin, FIG. 2A): 23%
